Measured values as given in patent US10280170B2, “Substituted 4,5,6,7-tetrahydro-pyrazolo[1,5-a]pyrazine derivatives and 5,6,7,8-tetrahydro-4H-pyrazolo[1,5-a][1,4]diazepine derivatives as Ros1 inhibitors” (Janssen Pharmaceutica NV, priority 2014, dated 2019).

Key:
[1] = molecular target: T1, Ba/F3 cells containing Ros1 wild-type protein (Homo sapiens, UniProt P08922, cells depend on it, form not given); assay: Ba/F3-Ros1 cell proliferation assay, wild-type Ros1; assay type: cell-based, murine; settings: without IL-3
T1 construct: The background only speaks of 'a number of different unrelated proteins' and names SLC34A2-ROS1 for HCC78 cells
T1 sequence (P08922 whole entry, stated change not applied): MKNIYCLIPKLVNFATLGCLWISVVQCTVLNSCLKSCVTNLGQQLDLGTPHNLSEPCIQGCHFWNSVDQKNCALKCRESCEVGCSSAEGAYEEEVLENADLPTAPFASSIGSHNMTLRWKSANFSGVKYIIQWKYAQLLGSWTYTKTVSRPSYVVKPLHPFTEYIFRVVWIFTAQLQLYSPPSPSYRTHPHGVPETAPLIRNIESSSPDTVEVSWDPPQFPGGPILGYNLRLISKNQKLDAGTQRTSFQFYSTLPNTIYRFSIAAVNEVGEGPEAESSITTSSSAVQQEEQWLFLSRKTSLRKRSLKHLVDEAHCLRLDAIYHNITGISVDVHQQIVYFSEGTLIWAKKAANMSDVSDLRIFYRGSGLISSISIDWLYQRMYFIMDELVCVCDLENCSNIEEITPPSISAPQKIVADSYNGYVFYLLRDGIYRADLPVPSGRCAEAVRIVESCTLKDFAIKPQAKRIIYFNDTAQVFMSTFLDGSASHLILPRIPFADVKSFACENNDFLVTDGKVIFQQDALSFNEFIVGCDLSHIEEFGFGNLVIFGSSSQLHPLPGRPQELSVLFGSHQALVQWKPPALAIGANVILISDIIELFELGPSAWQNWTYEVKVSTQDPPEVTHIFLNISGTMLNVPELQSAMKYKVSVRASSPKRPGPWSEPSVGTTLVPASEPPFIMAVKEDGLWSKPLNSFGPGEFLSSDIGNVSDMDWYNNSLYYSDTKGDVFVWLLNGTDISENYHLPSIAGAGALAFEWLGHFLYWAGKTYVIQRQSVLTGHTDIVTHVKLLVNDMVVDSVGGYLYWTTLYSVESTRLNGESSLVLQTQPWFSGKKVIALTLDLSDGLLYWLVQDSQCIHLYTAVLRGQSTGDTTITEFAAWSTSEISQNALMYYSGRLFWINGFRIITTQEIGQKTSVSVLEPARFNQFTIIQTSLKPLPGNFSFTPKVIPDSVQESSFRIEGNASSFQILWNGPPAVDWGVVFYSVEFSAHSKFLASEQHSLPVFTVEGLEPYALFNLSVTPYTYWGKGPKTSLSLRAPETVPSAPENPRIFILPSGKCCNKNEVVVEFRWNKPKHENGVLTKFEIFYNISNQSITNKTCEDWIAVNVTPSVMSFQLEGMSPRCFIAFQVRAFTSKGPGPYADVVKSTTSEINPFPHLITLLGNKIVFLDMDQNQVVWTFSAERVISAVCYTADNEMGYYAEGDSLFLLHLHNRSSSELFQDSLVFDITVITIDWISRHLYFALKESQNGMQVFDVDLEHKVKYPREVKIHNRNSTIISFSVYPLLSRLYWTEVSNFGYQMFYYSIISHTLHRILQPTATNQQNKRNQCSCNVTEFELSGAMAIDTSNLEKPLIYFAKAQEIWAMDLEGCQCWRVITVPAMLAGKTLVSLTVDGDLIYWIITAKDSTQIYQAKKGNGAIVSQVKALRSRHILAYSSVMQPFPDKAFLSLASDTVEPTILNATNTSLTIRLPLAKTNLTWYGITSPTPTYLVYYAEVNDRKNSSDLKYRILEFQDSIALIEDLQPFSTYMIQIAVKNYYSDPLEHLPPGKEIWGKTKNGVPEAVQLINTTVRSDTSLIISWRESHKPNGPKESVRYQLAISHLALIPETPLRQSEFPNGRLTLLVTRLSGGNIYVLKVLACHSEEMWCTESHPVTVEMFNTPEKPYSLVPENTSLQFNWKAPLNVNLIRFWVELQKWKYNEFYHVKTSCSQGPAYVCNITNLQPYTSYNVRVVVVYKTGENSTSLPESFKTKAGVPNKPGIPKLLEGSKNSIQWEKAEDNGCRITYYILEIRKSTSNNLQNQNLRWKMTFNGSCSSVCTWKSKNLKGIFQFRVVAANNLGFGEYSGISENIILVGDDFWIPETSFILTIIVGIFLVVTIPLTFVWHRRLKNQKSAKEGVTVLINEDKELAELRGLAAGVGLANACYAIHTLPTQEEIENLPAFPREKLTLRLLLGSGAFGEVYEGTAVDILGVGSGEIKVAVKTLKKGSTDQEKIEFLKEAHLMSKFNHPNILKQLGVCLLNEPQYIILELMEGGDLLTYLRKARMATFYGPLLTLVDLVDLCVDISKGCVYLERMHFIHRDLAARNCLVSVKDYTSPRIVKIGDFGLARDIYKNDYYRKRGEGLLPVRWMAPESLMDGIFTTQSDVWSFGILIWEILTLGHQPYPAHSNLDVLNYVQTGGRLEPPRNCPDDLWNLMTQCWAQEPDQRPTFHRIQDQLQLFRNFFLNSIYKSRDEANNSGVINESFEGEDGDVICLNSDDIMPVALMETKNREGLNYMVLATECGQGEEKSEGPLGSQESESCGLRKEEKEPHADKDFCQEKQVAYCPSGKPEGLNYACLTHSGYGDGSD
How it was run: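 20000 Ba/F3-Ros1 cells/well (WT, L2026M, G2032R), RPMI-1640 phenol red free + 10% FBS + 2 mM Gln, cpds from DMSO; 24 h, 37 °C, 5% CO2. Alamar Blue 4 h, RFU ex540/em590.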

[2] = test system: HCC78 non-small cell lung cancer cells; assay: HCC78 cell proliferation assay; assay type: cell-based; settings: Homo sapiens, HCC78, 96 h, read-out: HCC-78 PROL pEC50 (converted)
How it was run: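 HCC78 NSCLC cells (~1000/well) in RPMI-1640 with 10% FBS were treated 24 h after seeding and exposed to compound for 4 days at 37 °C. Viability was read by MTT, with absorbance at 538 nm after DMSO/glycine solubilization.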

[3] = test system: Ba/F3 tumors containing L2026M mutant Ros1; assay: Efficacy study in mice bearing Ba/F3-Ros1 tumors, L2026M mutant Ros1; assay type: in vivo, NMRI nude mice; settings: oral gavage, 10 days
Procedure: Efficacy Studies in Mice Bearing Ba/F3-Ros1 Tumors
Approximately 2×10^6 Ba/F3 cells containing either wild-type, L2026M or G2032R mutant Ros1 were inoculated into the inguinal region of NMRI nude mice. When the resulting tumors reached a size of 250 to 350 mm^3, mice were randomly assigned to the different treatment groups (8 to 12 mice per group). Compounds formulated in 20% cyclodextrin were administered to the mice by oral gavage at various doses for 10-days once (QD) or twice (BID) a day. Tumor sizes were determined by caliper measurement on day 1 prior to treatment and then twice weekly for the duration of the study using the commonly following formula: tumor volume (mm^3)=(a×b^2/2); where ‘a’ represents the length, and ‘b’ the width of the tumor. Treatment/control (T/C) ratios were calculated at the end of the study based on the change in final relative tumor volumes.

Row | SMILES | BaF3-ROS1-IL3 pIC50 [1] | EC50 [2] | T/C (%) ([3]; 6.25 mg/kg BID) | T/C (%) ([3]; 12.5 mg/kg BID) | T/C (%) ([3]; 25 mg/kg QD) | T/C (%) ([3]; 25 mg/kg BID) | T/C (%) ([3]; 50 mg/kg BID) | T/C (%) ([3]; 100 mg/kg BID) | melting point
1 | CC(C)c1ccc(COc2ccc(-c3c(-c4ccncc4)nn4c3C(=O)NCC4)cc2)cc1 [Compound 1] | 7.6 | 126 nM | 94% | 23% | 42% |  |  |  | 
2 | CC(C)c1ccc(COc2ccc(-c3c(-c4ccncc4)nn4c3C(=O)N(CCO)CC4)cc2)cc1 [Compound 2] | 7.6 | 126 nM |  | 82% |  | 50% | 28% | −32% | 181 °C
